{"source": "patent EP0115690A1", "about": "“Dibenzocycloheptenylidenes” (AMERICAN HOME PRODUCTS CORPORATION, priority 1983, dated 1984)", "key": {"[1]": {"system": "adjuvant arthritis (left paw edema)", "test": "rat adjuvant arthritis (daily dosing) assay", "assay_type": "in vivo, Sprague-Dawley rats", "conditions": "for ED50: Rattus norvegicus, po, 384 h, read-out: estimated ED50; for % Change of Left Paw Edema at Day 16: daily regimen", "description": "The ability of the compounds of the invention to inhibit immunologic-induced (chronic) inflammation is tested in adjuvant arthritis (daily dosing) assay.\nPolyarthritis is induced in groups of 6-10 Sprague-Dawley rats weighing between 180-220 g. by a subcutaneous injection into the right paw of dessicated Mycobacterium butyricum or tuberculosis (0.5 mg/0.1 ml) suspended in light mineral oil. Compounds of the invention, aspirin and indomethacin are administered orally in 0.5% methylcellulose using a daily regimen (except for weekends). Both hind paw volumes (ml.) are measured by mercury plethysmograph on day 0 or at the time of injection of the complete adjuvant. Increases in paw volume (viz. edema) are determined for the left paw on day 16. Statistical analysis of differences in paw edemas is performed by using the unpaired, Student's t-test."}, "carrageenan paw edema": {"system": "carrageenan paw edema", "test": "rat carrageenan edema test (hind paw)", "assay_type": "in vivo, male Sprague-Dawley rats", "conditions": "for ED50: Rattus norvegicus, po, 3 h, read-out: dose exhibiting a 50% inhibition of edema; for % Change From Control: paw edema 3 hours after carrageenan", "description": "Groups of 6-8 male Sprague-Dawley rats weighing between 150-200 grams are used. Compounds of the invention, aspirin and indomethacin are administered orally in 0.5% methylcellulose. Vehicle alone is administered as a control. Sixty minutes after drug administration edema is induced by injection of 0.1 ml. of a 1% carrageenan solution in saline into the subplantar tissue of the rat's right hind paw. Two minutes later, paw volume is measured volumetrically with a plethysmograph and again 3 hours later. The mean volume of swelling for the control group is calculated and compared to the test groups. Percent change in paw edema is calculated and analysed statistically (unpaired, Student's t-test)."}, "[2]": {"test": "anti-inflammatory activity, comparison of isomers (test not specified)", "assay_type": "in vivo", "conditions": "E-isomer versus Z-isomer"}}, "data": [{"smiles": "COc1ccc2c(c1)c(CC(=O)O)c(C)n2C(=O)c1ccc(Cl)cc1", "note": "[Indomethacin, reference compound]", "values": [{"measurement": "ED50", "setting": "[1]", "value": 0.9, "unit": "mg/kg"}, {"measurement": "ED50", "setting": "carrageenan paw edema", "value": "~5.6", "unit": "mg/kg"}]}, {"smiles": "CC(=O)Oc1ccccc1C(=O)O", "note": "[aspirin, reference compound]", "values": [{"measurement": "ED50", "setting": "[1]", "value": "~140", "unit": "mg/kg"}, {"measurement": "ED50", "setting": "carrageenan paw edema", "value": "~250", "unit": "mg/kg"}]}, {"smiles": "O=C(O)C(Cl)=C1c2ccccc2C=Cc2ccccc21", "note": "[Example 6E]", "values": [{"measurement": "% Change From Control", "setting": "carrageenan paw edema; oral dose 200 mg/kg", "value": -31, "unit": "%"}]}, {"smiles": "O=C(O)/C=C1/c2ccccc2C=Cc2cc(Cl)ccc21", "note": "[Example 2G]", "values": [{"measurement": "% Change From Control", "setting": "carrageenan paw edema; oral dose 200 mg/kg", "value": "~-38", "unit": "%"}]}, {"smiles": "COc1ccc2c(c1)C(=CC(=O)O)c1ccccc1C=C2", "note": "[Example 4F, (3-Methoxy-5H-dibenzo[a,d]cyclohepten-5-ylidene)acetic acid]", "values": [{"measurement": "% Change of Left Paw Edema at Day 16", "setting": "[1]; oral dose 15 mg/kg", "value": -50, "unit": "%"}, {"measurement": "% Change From Control", "setting": "carrageenan paw edema; oral dose >200 mg/kg", "value": -50, "unit": "%"}]}, {"smiles": "O=C(O)C=C1c2ccccc2C=C(Br)c2ccccc21", "note": "[Example 8, E- and Z-(10-bromo-5H-dibenzo[a,d]cyclohepten-5-ylidene) acetic acid]", "values": [{"measurement": "% Change of Left Paw Edema at Day 16", "setting": "[1]; oral dose 25-50 mg/kg", "value": "-25 to -50", "unit": "%"}, {"measurement": "% Change From Control", "setting": "carrageenan paw edema; oral dose 200 mg/kg", "value": -34, "unit": "%"}]}, {"smiles": "O=C(O)C=C1c2ccccc2C=Cc2ccc(F)cc21", "note": "[Example 9]", "values": [{"measurement": "% Change of Left Paw Edema at Day 16", "setting": "[1]; oral dose 100-200 mg/kg", "value": -40, "unit": "%"}, {"measurement": "oral doses that inhibit carrageenan paw edema", "setting": "carrageenan paw edema", "value": "20 to 200", "unit": "mg/kg"}, {"measurement": "% Change From Control", "setting": "carrageenan paw edema; oral dose 200 mg/kg", "value": -58, "unit": "%"}]}, {"smiles": "O=C(O)/C=C1\\c2ccccc2C=Cc2ccc(Cl)cc21", "note": "[Example 1H]", "values": [{"measurement": "% Change of Left Paw Edema at Day 16", "setting": "[1]; oral dose 25 mg/kg", "value": -59, "unit": "%"}, {"measurement": "anti-inflammatory activity relative to its Z-isomer", "setting": "[2]", "value": "several times more active"}, {"measurement": "oral doses that inhibit carrageenan paw edema", "setting": "carrageenan paw edema", "value": "20 to 200", "unit": "mg/kg"}, {"measurement": "% Change From Control", "setting": "carrageenan paw edema; oral dose 20 mg/kg", "value": -33, "unit": "%"}, {"measurement": "% Change From Control", "setting": "carrageenan paw edema; oral dose 60 mg/kg", "value": -53, "unit": "%"}, {"measurement": "% Change From Control", "setting": "carrageenan paw edema; oral dose 180 mg/kg", "value": -68, "unit": "%"}]}, {"smiles": "O=C(O)/C=C1\\c2ccccc2C=Cc2cc(Cl)ccc21", "note": "[Example 2H]", "values": [{"measurement": "% Change of Left Paw Edema at Day 16", "setting": "[1]; oral dose 25 mg/kg", "value": -59, "unit": "%"}, {"measurement": "% Change From Control", "setting": "carrageenan paw edema; oral dose 200 mg/kg", "value": -49, "unit": "%"}]}, {"smiles": "O=C(O)/C=C1/c2ccccc2C=Cc2ccc(Cl)cc21", "note": "[Example 1G, Z-(3-Chloro-5H-dibenzo[a,d]cyclohepten-5-ylidene) acetic acid]", "values": [{"measurement": "% Change of Left Paw Edema at Day 16", "setting": "[1]; oral dose 25 mg/kg", "value": -28, "unit": "%"}, {"measurement": "% Change From Control", "setting": "carrageenan paw edema; oral dose 100-200 mg/kg", "value": -20, "unit": "%"}]}, {"smiles": "C1=Cc2ccccc2C(=Cc2nnn[nH]2)c2ccccc21", "note": "[Example 7B, 5-(5H-Dibenzo[a,d]cyclohepten-5-ylidenemethyl) 1H-tetrazole]", "values": [{"measurement": "% Change From Control", "setting": "carrageenan paw edema; oral dose 200 mg/kg", "value": "~-38", "unit": "%"}]}]}
